In PubChem BioAssay (NCI):
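Cells were grown in 96-well plates and exposed to each compound for 48 hours at five concentrations; endpoints were interpolated linearly between bracketing concentrations, or set to the highest concentration if not reached. The concentration for full growth arrest is given as TGI.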

Experiments:
Experiment in all cases: NCI tumour cell line growth inhibition, 48 h
DLD-1 colon = test system: DLD-1 colon
A549 NSCLC = test system: A549 NSCLC
NCI-H23 lung = test system: NCI-H23 lung
XF 498 CNS = test system: XF 498 CNS
TK-10 renal = test system: TK-10 renal
SNB-75 CNS = test system: SNB-75 CNS
RXF 393 renal = test system: RXF 393 renal
LXFL 529 NSCLC = test system: LXFL 529 NSCLC
SK-MEL-5 melanoma = test system: SK-MEL-5 melanoma
A498 renal = test system: A498 renal
OVCAR-5 ovarian = test system: OVCAR-5 ovarian
HCT-116 colon = test system: HCT-116 colon
SF-268 CNS = test system: SF-268 CNS
NCI-H460 lung = test system: NCI-H460 lung
U251 CNS = test system: U251 CNS
M19-MEL melanoma = test system: M19-MEL melanoma
HCT-15 colon = test system: HCT-15 colon
KM20L2 colon = test system: KM20L2 colon
MOLT-4 leukemia = test system: MOLT-4 leukemia
HOP-62 NSCLC = test system: HOP-62 NSCLC
OVCAR-3 ovarian = test system: OVCAR-3 ovarian
SF-539 CNS = test system: SF-539 CNS
SNB-78 CNS = test system: SNB-78 CNS
DMS 114 small cell lung = test system: DMS 114 small cell lung
K-562 leukemia = test system: K-562 leukemia
LOX IMVI melanoma = test system: LOX IMVI melanoma
SF-295 CNS = test system: SF-295 CNS
SK-OV-3 ovarian = test system: SK-OV-3 ovarian
786-0 renal = test system: 786-0 renal
HT29 colon = test system: HT29 colon
SK-MEL-2 melanoma = test system: SK-MEL-2 melanoma
ACHN renal = test system: ACHN renal
SK-MEL-28 melanoma = test system: SK-MEL-28 melanoma
SW-620 colon = test system: SW-620 colon
EKVX NSCLC = test system: EKVX NSCLC
OVCAR-8 ovarian = test system: OVCAR-8 ovarian
CCRF-CEM leukemia = test system: CCRF-CEM leukemia
COLO 205 colon = test system: COLO 205 colon
M14 melanoma = test system: M14 melanoma
NCI-H226 lung = test system: NCI-H226 lung
HOP-92 NSCLC = test system: HOP-92 NSCLC
DMS 273 small cell lung = test system: DMS 273 small cell lung
UACC-62 melanoma = test system: UACC-62 melanoma
NCI-H522 lung = test system: NCI-H522 lung
UO-31 renal = test system: UO-31 renal
SNB-19 CNS = test system: SNB-19 CNS
KM12 colon = test system: KM12 colon
SN12C renal = test system: SN12C renal
RPMI-8226 leukemia = test system: RPMI-8226 leukemia
IGROV1 ovarian = test system: IGROV1 ovarian
OVCAR-4 ovarian = test system: OVCAR-4 ovarian
HL-60(TB) leukemia = test system: HL-60(TB) leukemia
MALME-3M melanoma = test system: MALME-3M melanoma
UACC-257 melanoma = test system: UACC-257 melanoma
HCC-2998 colon = test system: HCC-2998 colon
SR leukemia = test system: SR leukemia
CAKI-1 renal = test system: CAKI-1 renal

COc1ccc(C(=O)O)c(Br)c1OCc1ccccc1
TGI (DLD-1 colon): > 100 µM | TGI (A549 NSCLC): > 100 µM | TGI (NCI-H23 lung): > 100 µM | TGI (XF 498 CNS): > 100 µM | TGI (TK-10 renal): > 100 µM | TGI (SNB-75 CNS): > 100 µM | TGI (RXF 393 renal): > 100 µM | TGI (LXFL 529 NSCLC): > 100 µM | TGI (SK-MEL-5 melanoma): > 100 µM | TGI (A498 renal): > 100 µM | TGI (OVCAR-5 ovarian): > 100 µM | TGI (HCT-116 colon): > 100 µM | TGI (SF-268 CNS): > 100 µM | TGI (NCI-H460 lung): > 100 µM | TGI (U251 CNS): > 100 µM | TGI (M19-MEL melanoma): > 100 µM | TGI (HCT-15 colon): > 100 µM | TGI (KM20L2 colon): > 100 µM | TGI (MOLT-4 leukemia): > 100 µM | TGI (HOP-62 NSCLC): > 100 µM | TGI (OVCAR-3 ovarian): > 100 µM | TGI (SF-539 CNS): > 100 µM | TGI (SNB-78 CNS): > 100 µM | TGI (DMS 114 small cell lung): > 100 µM | TGI (K-562 leukemia): > 100 µM | TGI (LOX IMVI melanoma): > 100 µM | TGI (SF-295 CNS): > 100 µM | TGI (SK-OV-3 ovarian): > 100 µM | TGI (786-0 renal): > 100 µM | TGI (HT29 colon): > 100 µM | TGI (SK-MEL-2 melanoma): > 100 µM | TGI (ACHN renal): > 100 µM | TGI (SK-MEL-28 melanoma): > 100 µM | TGI (SW-620 colon): > 100 µM | TGI (EKVX NSCLC): > 100 µM | TGI (OVCAR-8 ovarian): > 100 µM | TGI (CCRF-CEM leukemia): > 100 µM | TGI (COLO 205 colon): > 100 µM | TGI (M14 melanoma): > 100 µM | TGI (NCI-H226 lung): > 100 µM | TGI (HOP-92 NSCLC): > 100 µM | TGI (DMS 273 small cell lung): > 100 µM | TGI (UACC-62 melanoma): > 100 µM | TGI (NCI-H522 lung): > 100 µM | TGI (UO-31 renal): > 100 µM | TGI (SNB-19 CNS): > 100 µM | TGI (KM12 colon): > 100 µM | TGI (SN12C renal): > 100 µM | TGI (RPMI-8226 leukemia): > 100 µM | TGI (IGROV1 ovarian): > 100 µM | TGI (OVCAR-4 ovarian): > 100 µM | TGI (HL-60(TB) leukemia): > 100 µM

CC(C)(C)C1=Nc2c(Br)cc(C(C)(C)C)cc2C(C(F)(F)F)(C(F)(F)F)O1
TGI (DLD-1 colon): > 100 µM | TGI (A549 NSCLC): > 100 µM | TGI (NCI-H23 lung): > 100 µM | TGI (XF 498 CNS): 59.4 µM | TGI (TK-10 renal): > 100 µM | TGI (SNB-75 CNS): > 100 µM | TGI (RXF 393 renal): 43.5 µM | TGI (LXFL 529 NSCLC): > 100 µM | TGI (SK-MEL-5 melanoma): > 100 µM | TGI (OVCAR-5 ovarian): > 100 µM | TGI (HCT-116 colon): > 100 µM | TGI (NCI-H460 lung): > 100 µM | TGI (MALME-3M melanoma): > 100 µM | TGI (U251 CNS): 44.7 µM | TGI (M19-MEL melanoma): > 100 µM | TGI (UACC-257 melanoma): > 100 µM | TGI (HCT-15 colon): > 100 µM | TGI (KM20L2 colon): > 100 µM | TGI (MOLT-4 leukemia): > 100 µM | TGI (HOP-62 NSCLC): > 100 µM | TGI (OVCAR-3 ovarian): 37 µM | TGI (SF-539 CNS): > 100 µM | TGI (SNB-78 CNS): > 100 µM | TGI (DMS 114 small cell lung): 86.3 µM | TGI (K-562 leukemia): > 100 µM | TGI (LOX IMVI melanoma): 31.3 µM | TGI (SF-295 CNS): > 100 µM | TGI (SK-OV-3 ovarian): > 100 µM | TGI (HCC-2998 colon): 65.1 µM | TGI (786-0 renal): > 100 µM | TGI (HT29 colon): > 100 µM | TGI (SK-MEL-2 melanoma): > 100 µM | TGI (ACHN renal): > 100 µM | TGI (SK-MEL-28 melanoma): > 100 µM | TGI (SW-620 colon): > 100 µM | TGI (EKVX NSCLC): > 100 µM | TGI (OVCAR-8 ovarian): > 100 µM | TGI (CCRF-CEM leukemia): > 100 µM | TGI (COLO 205 colon): > 100 µM | TGI (M14 melanoma): > 100 µM | TGI (DMS 273 small cell lung): > 100 µM | TGI (UACC-62 melanoma): > 100 µM | TGI (NCI-H522 lung): > 100 µM | TGI (UO-31 renal): > 100 µM | TGI (SNB-19 CNS): > 100 µM | TGI (KM12 colon): > 100 µM | TGI (SN12C renal): > 100 µM | TGI (RPMI-8226 leukemia): 66.3 µM | TGI (IGROV1 ovarian): > 100 µM | TGI (OVCAR-4 ovarian): > 100 µM | TGI (SR leukemia): > 100 µM | TGI (HL-60(TB) leukemia): 47.4 µM

CC(c1ccccc1)N1O[C@]12CC[C@@]1(C)C(CCCC13OCCO3)C2 (stereo partly drawn)
TGI (DLD-1 colon): 32.7 µM | TGI (A549 NSCLC): 43 µM | TGI (NCI-H23 lung): > 100 µM | TGI (XF 498 CNS): 44.3 µM | TGI (TK-10 renal): 32.2 µM | TGI (SNB-75 CNS): 39 µM | TGI (RXF 393 renal): 54.5 µM | TGI (SK-MEL-5 melanoma): 93.1 µM | TGI (OVCAR-5 ovarian): > 100 µM | TGI (HCT-116 colon): 29.6 µM | TGI (SF-268 CNS): > 100 µM | TGI (NCI-H460 lung): 38.1 µM | TGI (MALME-3M melanoma): 83.9 µM | TGI (U251 CNS): 37.6 µM | TGI (M19-MEL melanoma): 51 µM | TGI (UACC-257 melanoma): 43.4 µM | TGI (HCT-15 colon): 46.2 µM | TGI (KM20L2 colon): > 100 µM | TGI (CAKI-1 renal): 37.2 µM | TGI (HOP-62 NSCLC): > 100 µM | TGI (OVCAR-3 ovarian): 34.4 µM | TGI (SF-539 CNS): > 100 µM | TGI (SNB-78 CNS): 40.9 µM | TGI (DMS 114 small cell lung): 27.4 µM | TGI (LOX IMVI melanoma): 26.2 µM | TGI (SF-295 CNS): 44.3 µM | TGI (SK-OV-3 ovarian): > 100 µM | TGI (HCC-2998 colon): > 100 µM | TGI (786-0 renal): 36.5 µM | TGI (HT29 colon): 44.3 µM | TGI (ACHN renal): 30.3 µM | TGI (SK-MEL-28 melanoma): > 100 µM | TGI (SW-620 colon): 34.4 µM | TGI (OVCAR-8 ovarian): 37.2 µM | TGI (COLO 205 colon): 32.5 µM | TGI (M14 melanoma): 32.1 µM | TGI (NCI-H226 lung): > 100 µM | TGI (HOP-92 NSCLC): 23.7 µM | TGI (DMS 273 small cell lung): 36 µM | TGI (UACC-62 melanoma): 35.4 µM | TGI (NCI-H522 lung): 32 µM | TGI (UO-31 renal): 31.9 µM | TGI (SNB-19 CNS): > 100 µM | TGI (KM12 colon): 43.2 µM | TGI (SN12C renal): 75.6 µM | TGI (RPMI-8226 leukemia): > 100 µM | TGI (IGROV1 ovarian): 12.1 µM | TGI (OVCAR-4 ovarian): 33.2 µM | TGI (SR leukemia): 40.4 µM
